The values that follow come from US8178559B2, “Organic compounds” (Novartis AG, priority 2004, dated 2012).

The target in this assay is T1, renin (Homo sapiens, UniProt P00797).
T1 construct: made in house; host or cells: Chinese Hamster Ovary cells
T1 sequence (P00797 67-406): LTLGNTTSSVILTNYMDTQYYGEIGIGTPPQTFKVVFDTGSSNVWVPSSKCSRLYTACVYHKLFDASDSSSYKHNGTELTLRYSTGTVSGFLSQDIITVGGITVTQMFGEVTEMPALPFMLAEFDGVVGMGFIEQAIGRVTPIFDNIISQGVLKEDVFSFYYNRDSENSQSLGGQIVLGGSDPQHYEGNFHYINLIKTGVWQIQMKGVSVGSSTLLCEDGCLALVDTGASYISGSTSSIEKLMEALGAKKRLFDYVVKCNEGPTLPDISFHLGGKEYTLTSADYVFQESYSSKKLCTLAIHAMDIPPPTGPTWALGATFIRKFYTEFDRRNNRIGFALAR
Kind of assay: renin enzyme assay (which of the described assay systems is not specified). Format: biochemical. As to conditions: in the several assay system as described above. Here is the method: Recombinant human renin (expressed in Chinese Hamster Ovary cells and purified using standard methods) at 7.5 nM concentration is incubated with test compound at various concentrations for 1 h at RT in 0.1 M Tris-HCl buffer, pH 7.4, containing 0.05 M NaCl, 0.5 mM EDTA and 0.05% CHAPS. Synthetic peptide substrate Arg-Glu(EDANS)-Ile-His-Pro-Phe-His-Leu-Val-Ile_His_Thr-Lys(DABCYL)-Arg9 is added to a final concentration of 2 μM and increase in fluorescence is recorded at an excitation wave-length of 350 nm and at an emission wave-length of 500 nm in a microplate spectro-fluorimeter. IC50 values are calculated from percentage of inhibition of renin activity as a function of test compound concentration (Fluorescence Resonance Energy Transfer, FRET, assay).
Alternatively, recombinant human renin (expressed in Chinese Hamster Ovary cells and purified using standard methods) at 0.5 nM concentration is incubated with test compound at various concentrations for 2 h at 37° C. in 0.1 M Tris-HCl buffer, pH 7.4, containing 0.05 M NaCl, 0.5 mM EDTA and 0.05% CHAPS. Synthetic peptide substrate Arg-Glu(EDANS)-Ile-His-Pro-Phe-His-Leu-Val-Ile_His_Thr-Lys(DABCYL)-Arg9 is added to a final concentration of 4 μM and increase in fluorescence is recorded at an excitation wave-length of 340 nm and at an emission wave-length of 485 nm in a microplate spectro-fluorimeter. […]

Take `Cc1cccc(CN(C(=O)[C@H]2CNCC[C@@H]2c2cccc(-c3ccccc3)c2)C2CC2)c1C` [Example 75]: the “inhibitory activity compared with the active enantiomer of Example 8” value was “same inhibitory activity to an active enantiomer of Example 8”.
